In patent publication US11512097B2, “Heterocyclic compounds as Delta-5 desaturase inhibitors and methods of use” (Amgen Inc., priority 2019, dated 2022) one finds IC50 data, which are given here for 26 molecules.

Structures are written as SMILES.

T1 sequence (O60427 whole entry, species assumed): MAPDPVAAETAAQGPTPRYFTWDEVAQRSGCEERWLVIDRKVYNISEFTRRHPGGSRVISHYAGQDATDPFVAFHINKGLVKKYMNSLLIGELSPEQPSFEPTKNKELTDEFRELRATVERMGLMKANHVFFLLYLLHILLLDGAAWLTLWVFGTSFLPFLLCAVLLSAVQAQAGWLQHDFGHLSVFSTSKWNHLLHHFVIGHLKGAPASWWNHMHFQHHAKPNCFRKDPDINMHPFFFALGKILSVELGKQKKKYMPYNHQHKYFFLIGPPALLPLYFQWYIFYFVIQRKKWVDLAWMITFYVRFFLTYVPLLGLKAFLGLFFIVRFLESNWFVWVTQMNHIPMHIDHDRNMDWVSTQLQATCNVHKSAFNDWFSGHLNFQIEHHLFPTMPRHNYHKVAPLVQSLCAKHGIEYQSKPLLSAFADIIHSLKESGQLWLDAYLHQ

This experiment addresses T1, Delta-5-Desaturase (D5D), membrane preparations of D5D-overexpressing HEK293 6E cells (Homo sapiens, UniProt O60427).
T1 construct: expressed in transfected cells; host or cells: HEK293 6E cells (membrane preparation)
As to the kind of experiment: In vitro measurement of Delta-5-Desaturase inhibitory activity using DGLA-CoA and Arachidonyl-CoA mass spectrometric assays. Format: biochemical. As to conditions: D5D membrane 10 μg/mL, one-hour incubation, average of at least two independent runs. How it is done:
In Vitro Measurement of Delta-5-Desaturase Inhibitory Activity Using DGLA-CoA and Arachidonyl-CoA Mass Spectrometric Assays Membrane preparations of D5D-overexpressing HEK293 6E cells were prepared in which the total protein concentration was 5.6 mg/mL. Stock D5D membrane preparations were diluted in D5D assay buffer (25 mM 2-amino-2-(hydroxymethyl)-1,3-propanediol, pH 7.5 containing 10 mM MgCl2, 1 mM octyl glucoside (SigmaAldrich O-8001), 1 mM tris(2-carboxyethyl)phosphine hydrochloride (SigmaAldrich 646547)) to a final D5D membrane concentration of 10 μg/mL in an assay plate containing serially diluted test compounds. To 15 μL of this D5D preparation was added 15 μL of a substrate solution (0.25 mM NADH (nicotinamide adenine dinucleotide, Roche Diag. 10107735001), 0.25 mM adenosine triphosphate (SigmaAldrich A-3377), 0.05 mM coenzyme A hydrate (SigmaAldrich C-4282), and 0.01 mM DGLA (dihomo-g-linolenic acid, Sigma E-4504) in the same D5D assay buffer. After one-hour incubation at ambient temperature acetonitrile (30 μL) was added to quench the reaction and plates were centrifuged for 10 min @ 3,000 rpm. Mass spectrometric analysis involved a Rapidfire 360 SPE system coupled to an ABSciex API4000 Triple Quadrupole mass spectrometer using a C18 SPE cartridge (G9203-80105) with ionization in negative mode (solvent A=100% water; solvent B=100% acetonitrile, each solvent containing 5 mM ammonium acetate). DGLA-CoA and Arachidonyl-CoA were detected by multiple reaction monitoring (MRM) of the doubly charged parent ions at m/z 526.6 and 525.6, respectively. […] Sx is value from unknown sample, So is value from DMSO alone and Sc is value from no enzyme well. For CRC analysis, the % of inhibitions were analysed with 4 Parameter Logistic Model or Sigmoidal Dose-Response Model using XLfit (IDBS, Guilford, UK). The potency of the test item was expressed as IC50 nM, corresponding to the test item concentration able to inhibit the 50% of the enzyme maximal response. IC50 values were averaged values determined by at least two independent runs. The results presented in Table 15 have been generated with the in vitro assay described above. This assay may be used to test any of the compounds described herein to assess and characterize a compound's ability to inhibit D5D.
`Cc1cn2c(=O)c(-c3cnn(CC(F)(F)C(F)(F)F)c3)c(C(F)(F)F)nc2n1CC(C)(C)O` [Example 88, 1-(2-hydroxy-2-methylpropyl)-2-methyl-6-[1-(2,2,3,3,3-pentafluoropropyl)-1H-pyrazol-4-yl]-7-(trifluoromethyl)-1H,5H-imidazo[1,2-a]pyrimidin-5-one] showed an IC50 of 631 nM. This lies in the sub-micromolar range.

Regarding `COCCn1c(C)cn2c(=O)c(-c3cnn(CC(F)(F)C(F)(F)F)c3)c(C(F)(F)F)nc12` [Example 57, 1-(2-methoxyethyl)-2-methyl-6-[1-(2,2,3,3,3-pentafluoropropyl)-1H-pyrazol-4-yl]-7-(trifluoromethyl)-1H,5H-imidazo[1,2-a]pyrimidin-5-one], half-maximal inhibition (IC50) required 146 nM. Compared with the last molecule, the IC50 is about 4.3-fold lower. Next, `Cc1cn2c(=O)c(-c3ccc(OCC(F)(F)F)cc3)c(C(F)(F)F)nc2n1C` [Example 54, 1,2-dimethyl-6-[4-(2,2,2-trifluoroethoxy)phenyl]-7-(trifluoromethyl)-1H,5H-imidazo[1,2-a]pyrimidin-5-one]: 17.1 nM; `Cn1c(C2CC2)cn2c(=O)c(-c3cnn(CC(F)(F)C(F)(F)F)c3)c(C(F)(F)F)nc12` [Example 50, 2-cyclopropyl-1-methyl-6-[1-(2,2,3,3,3-pentafluoropropyl)-1H-pyrazol-4-yl]-7-(trifluoromethyl)-1H,5H-imidazo[1,2-a]pyrimidin-5-one]: 120 nM; `[2H]C([2H])([2H])n1c(C)cn2c(=O)c(-c3cnn(CCC(F)(F)F)c3)c(C(F)(F)F)nc12` [Example 78, 1-(^2H3)methyl-2-methyl-7-(trifluoromethyl)-6-[1-(3,3,3-trifluoropropyl)-1H-pyrazol-4-yl]-1H,5H-imidazo[1,2-a]pyrimidin-5-one]: 28 nM. Take `Cc1cn2c(=O)c(-c3cnn(CC(F)(F)C(F)(F)F)c3)c(C(F)(F)F)nc2n1-c1cccnc1` [Example 98, 2-methyl-6-[1-(2,2,3,3,3-pentafluoropropyl)-1H-pyrazol-4-yl]-1-(pyridin-3-yl)-7-(trifluoromethyl)-1H,5H-imidazo[1,2-a]pyrimidin-5-one]: the midpoint of inhibition, the IC50, lay at 2400 nM.

The molecule `Cc1cn2c(=O)c(-c3cnn(CC(F)(F)C(F)(F)F)c3)c(C(F)(F)F)nc2n1CC(C)O` (centres unmarked) [Example 64, 1-(2-hydroxypropyl)-2-methyl-6-[1-(2,2,3,3,3-pentafluoropropyl)-1H-pyrazol-4-yl]-7-(trifluoromethyl)-1H,5H-imidazo[1,2-a]pyrimidin-5-one] showed an IC50 of 239 nM. This IC50 is about 10-fold lower than that of the molecule before.

`Cc1cn2c(=O)c(-c3cnn(CCC(F)(F)F)c3)c(C(F)(F)F)nc2n1CCO` [Example 83, 1-(2-hydroxyethyl)-2-methyl-7-(trifluoromethyl)-6-[1-(3,3,3-trifluoropropyl)-1H-pyrazol-4-yl]-1H,5H-imidazo[1,2-a]pyrimidin-5-one] displayed an IC50 of 11.5 nM. This IC50 lies about 21-fold lower than the previous one. Next, `O=c1c(-c2cnn(CCC(F)(F)F)c2)c(C(F)(F)F)nc2n1CCC2` [Example 21, 2-(trifluoromethyl)-3-[1-(3,3,3-trifluoropropyl)-1H-pyrazol-4-yl]-4H,6H,7H,8H-pyrrolo[1,2-a]pyrimidin-4-one]: 235 nM; `Cc1cn2c(=O)c(-c3cnn(CC(F)(F)C(F)(F)F)c3)c(C(F)(F)F)nc2n1-c1cn[nH]c1` [Example 103, 2-methyl-6-[1-(2,2,3,3,3-pentafluoropropyl)-1H-pyrazol-4-yl]-1-(1H-pyrazol-4-yl)-7-(trifluoromethyl)-1H,5H-imidazo[1,2-a]pyrimidin-5-one]: 301 nM. Next, `Cc1cn2c(=O)c(-c3cnn(CCC(F)(F)F)c3)c(C(F)(F)F)nc2n1CC1CC(F)(F)C1` [Example 82, 1-[(3,3-difluorocyclobutyl)methyl]-2-methyl-7-(trifluoromethyl)-6-[1-(3,3,3-trifluoropropyl)-1H-pyrazol-4-yl]-1H,5H-imidazo[1,2-a]pyrimidin-5-one]: 2030 nM.

Molecule `Cn1ccn2c(=O)c(-c3cnn(CC(F)(F)C(F)(F)F)c3)c(C(F)(F)F)nc12` [Example 37, 1-methyl-6-[1-(2,2,3,3,3-pentafluoropropyl)-1H-pyrazol-4-yl]-7-(trifluoromethyl)-1H,5H-imidazo[1,2-a]pyrimidin-5-one] yielded an IC50 of 11.5 nM.

The molecule `Cc1cn2c(=O)c(-c3cnn(CC(F)(F)C(F)(F)F)c3)c(C(F)(F)F)nc2n1CCC1(O)CC1` [Example 89, 1-[2-(1-hydroxycyclopropyl)ethyl]-2-methyl-6-[1-(2,2,3,3,3-pentafluoropropyl)-1H-pyrazol-4-yl]-7-(trifluoromethyl)-1H,5H-imidazo[1,2-a]pyrimidin-5-one] returned an IC50 of 53.3 nM. With `Cc1cn2c(=O)c(-c3cnn(CC(F)(F)C(F)(F)F)c3)c(C(F)(F)F)nc2n1C(C)C` [Example 58, 2-methyl-6-[1-(2,2,3,3,3-pentafluoropropyl)-1H-pyrazol-4-yl]-1-(propan-2-yl)-7-(trifluoromethyl)-1H,5H-imidazo[1,2-a]pyrimidin-5-one] the figure was 31.5 nM; with `O=c1c(-c2cnn(CC(F)(F)C(F)(F)F)c2)c(C(F)(F)F)nc2sc(F)cn12` [Example 7, 2-fluoro-6-[1-(2,2,3,3,3-pentafluoropropyl)-1H-pyrazol-4-yl]-7-(trifluoromethyl)-5H-[1,3]thiazolo[3,2-a]pyrimidin-5-one], 1.3 nM. Next, `COc1cn2c(=O)c(-c3cnn(CCC(F)(F)F)c3)c(C(F)(F)F)nc2n1C` [Example 72, 2-methoxy-1-methyl-7-(trifluoromethyl)-6-[1-(3,3,3-trifluoropropyl)-1H-pyrazol-4-yl]-1H,5H-imidazo[1,2-a]pyrimidin-5-one]: 135 nM. Next, `Cc1cn2c(=O)c(-c3ccc(OCC(F)(F)F)cc3)c(C(F)(F)F)nc2[nH]1` [Example 75, 2-methyl-6-[4-(2,2,2-trifluoroethoxy)phenyl]-7-(trifluoromethyl)-1H,5H-imidazo[1,2-a]pyrimidin-5-one]: 6.3 nM; `O=c1c(-c2cnn(CC(F)(F)C(F)(F)F)c2)c(C(F)(F)F)nc2n1CCC2` [Example 19, 3-[1-(2,2,3,3,3-pentafluoropropyl)-1H-pyrazol-4-yl]-2-(trifluoromethyl)-4H,6H,7H,8H-pyrrolo[1,2-a]pyrimidin-4-one]: 46.3 nM. As for `Cc1cn2c(=O)c(-c3cnn(CC(F)(F)C(F)(F)F)c3)c(C(F)(F)F)nc2n1CC1CC1` [Example 62, 1-(cyclopropylmethyl)-2-methyl-6-[1-(2,2,3,3,3-pentafluoropropyl)-1H-pyrazol-4-yl]-7-(trifluoromethyl)-1H,5H-imidazo[1,2-a]pyrimidin-5-one], the IC50 amounted to 2.9 nM. With `O=c1c(-c2cnn(CC(F)(F)C(F)(F)F)c2)c(C(F)(F)F)nc2sc(Cl)cn12` [Example 9, 2-chloro-6-[1-(2,2,3,3,3-pentafluoropropyl)-1H-pyrazol-4-yl]-7-(trifluoromethyl)-5H-[1,3]thiazolo[3,2-a]pyrimidin-5-one] the figure was 6.4 nM.

With `O=c1c(-c2cnn(CC(F)(F)C(F)(F)F)c2)c(C(F)(F)F)nc2[nH]c(Cl)cn12` [Example 49, 2-chloro-6-[1-(2,2,3,3,3-pentafluoropropyl)-1H-pyrazol-4-yl]-7-(trifluoromethyl)-1H,5H-imidazo[1,2-a]pyrimidin-5-one], half-maximal inhibition (IC50) required 331 nM. With `Cc1cn2c(=O)c(-c3cnn(CC(F)(F)C(F)(F)F)c3)c(C(F)(F)F)nc2n1CC1COC1` [Example 90, 2-methyl-1-[(oxetan-3-yl)methyl]-6-[1-(2,2,3,3,3-pentafluoropropyl)-1H-pyrazol-4-yl]-7-(trifluoromethyl)-1H,5H-imidazo[1,2-a]pyrimidin-5-one] the figure was 105 nM; with `C[C@@H]1Cn2c(nc(C(F)(F)F)c(-c3cnn(CC(F)(F)C(F)(F)F)c3)c2=O)S1` (single isomer, unassigned) [Example 114], 49.4 nM; with `Cc1cccc(-n2c(C)cn3c(=O)c(-c4cnn(CC(F)(F)C(F)(F)F)c4)c(C(F)(F)F)nc23)n1` [Example 96, 2-methyl-1-(6-methylpyridin-2-yl)-6-[1-(2,2,3,3,3-pentafluoropropyl)-1H-pyrazol-4-yl]-7-(trifluoromethyl)-1H,5H-imidazo[1,2-a]pyrimidin-5-one], 19.4 nM. With `C[C@H]1Cn2c(nc(C(F)(F)F)c(-c3cnn(CC(F)(F)C(F)(F)F)c3)c2=O)S1` (single isomer, unassigned) [Example 113] the figure was 11.8 nM; with `Cc1cn2c(=O)c(-c3cnn(CCC(F)(F)F)c3)c(C(F)(F)F)nc2n1C[C@@H]1CC1(F)F` (single isomer, unassigned) [Example 115], 39 nM.
